Reference: patent publication US20050032841A1, “Therapeutic compositions and methods of treating glycolipid storage related disorders” (priority 1999, published 2005)
Several values for one entry are separate records, joined by “and”; a condition that tells them apart may be missing. Equal values may be shown once.

Key:
α-glucosidase I and II = settings: cited from earlier work
GSL synthesis = settings: compared with NB-DNJ; cited from earlier work
MPS IIIA mice = test: Murine model of MPS IIIA: brain immunocytochemistry (GM2, GM3) and auto-fluorescent material; type: in vivo
Description: Colonies of mutant mice expressing the MPS IIIA phenotype have been described, and have been validated by a number of criteria as an authentic model of the disease (Stanley, P et al (1999) Glycobiology 9: 1389-1396). MPS IIIA mice display clinical signs of the disease around 6 months of age with decreased activity, scruffy coat, abdominal distention, hunched posture and waddling gait. […] Death results by 18 months or less.
The brains of MPS mice are grossly normal. […] White matter and Purkinje cells display axonal spheroids. Anti-heparan sulfate immunostaining indicates accumulation of heparan sulfate fragments in the cerebral cortex of MPS IIIA animals.
MPS IIIA mice were treated with 1200 mg/kg/day, beginning at 4 weeks of age, with NB-DNJ. Brain samples from animals were taken at 8 weeks of age (4 weeks of treatment with NB-DNJ) and subjected to immunocytochemistry with an anti-GM2 ganglioside-specific monoclonal antibody. […] Upper cortex, ii. Lower cortex; B: NB-DNJ Treated, i. Upper cortex, ii. Lower cortex.
The hippocampus (CA4-Dentate Gyrus) of the MPS IIIA animals was also examined for staining by a GM2 Ganglioside-specific monoclonal antibody.
Cerebral cortex samples from animals were also taken at 40 weeks of age (36 weeks of treatment with NB-DNJ) and subjected to immunocytochemistry with an anti-GM3 ganglioside-specific monoclonal antibody. Anti-GM2 staining was similar to anti-GM3 staining in both treated and untreated animals, respectively (data not shown).
The brains of animals affected by MPS IIIA, as well as some other of the mucopolysaccharidoses, store heterogeneous auto-fluorescent material in addition to glycolipids. Thus, the cerebral cortex of MPS IIIA animals either left untreated or treated for 36 weeks with NB-DNJ were also examined for the presence of auto-fluorescent material.

[1] = Serum enzyme activity and half life of Ceredase after i.v. injection in mice, with or without NB-DNJ pre-treatment; type: in vivo; set-up: unit not given here; settings: mice treated with NB-DNJ 4800 mg/kg/day for 5 weeks
Protocol: A group of mice were treated with NB-DNJ at 4800 mg/kg/day for 5 weeks. After a low intravenous dose (5-10 U/kg) of Ceredase™ (Genzyme Corporation) administered as a single injection via the tail vein, serum enzyme activity was measured by taking sequential serum samples from the tail vein to monitor enzyme activity over time. Ceredase™ is a modified form of β glucocerebrosidase.

[2] = test system: mouse model of Tay-Sachs disease; settings: asymptomatic Tay-Sachs mouse model; cited from earlier work
Sandhoff mice = test: Survival of Sandhoff mice treated with NB-DNJ and/or bone marrow transplantation; type: in vivo; settings: BMT at two weeks of age, NB-DNJ 600 mg/kg/day from 9.5-11 weeks of age
[3] = test system: in vitro model of Gaucher disease; settings: cited from earlier work

SMILES | Inhibition of α-glucosidase I and II (α-glucosidase I and II) | Inhibition of GSL synthesis in vitro (GSL synthesis) | Pathological features in the model of MPS IIIA (MPS IIIA mice; NB-DNJ 1200 mg/kg/day) | Glycolipid storage in neuronal cells (MPS IIIA mice; NB-DNJ 1200 mg/kg/day from 4 weeks of age, anti-GM2/GM3 immunocytochemistry) | Storage of auto-fluorescent material in cerebral cortex (MPS IIIA mice; NB-DNJ 1200 mg/kg/day, 36 weeks of treatment) | Peak Activity of Ceredase in serum, mean ± sem ([1]; Ceredase 5-10 U/kg i.v., group mean) | Peak Activity of Ceredase in serum ([1]; Ceredase 5-10 U/kg single i.v. injection, individual mice) | GM2 accumulation in the brain and associated neuropathology [2] | Survival (longest survivor) (Sandhoff mice) [days] | Storage in in vitro model of Gaucher disease [3]
CCCCN1C[C@H](O)[C@@H](O)[C@@H](O)[C@H]1CO [NB-DGJ, N-butyldeoxygalactonojirimycin] | does not inhibit | as effectively as NB-DNJ | – | – | – | – | – | – | – | –
CCCCN1C[C@H](O)[C@@H](O)[C@H](O)[C@H]1CO [NB-DNJ, N-butyldeoxynojirimycin] | – | – | markedly reduces the pathological features | markedly reduced | reduced the storage of auto-fluorescent material | 27.4 ± 7.2 | 13.9 and 32.1 and 24.1 and 13.1 and 21.0 and 68.3 and 19.2 | reduce GM2 accumulation in the brain and prevent the neuropathology | 170 | shown to prevent storage
